Assay results taken from ChEMBL document CHEMBL1201862, “PubChem BioAssay data set” (2004).
Calls of active or inactive are those of the source.

Legend:
cells [1] = assay type: functional, cell-based
[2] = target: Heat shock protein HSP 90-alpha (Homo sapiens, UniProt P07900); assay type: functional, organism-based
[3] = system: Streptococcus sp. 'group A'; assay: growth inhibition of control SK(-) GAS strain, dose response, counter-screen for streptokinase expression inhibitor project, luminescence, kanamycin, BacTiterGlo, confirmation (AID 1900); assay type: functional, organism-based
[4] = inhibitors of intracellular T. cruzi replication, confirmation, NIH3T3 host cells, beta-gal luminescence (AID 2044); assay type: functional, cell-based;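 also: intracellular parasites grown in NIH/3T3 mouse fibroblasts as host cells; luminescent beta-galactosidase reporter signal from transgenic T. cruzi replicating inside host cells; inhibitors lower the luminescence signal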
[5] = Counterscreen for AddAB inhibitors: absorbance-based bacterial cell-based high throughput dose response assay for inhibitors of bacterial viability. [Related pubchem assays (depositor defined):AID435030, AID449728, AID449731, AID488942, AID488955, AID488956]; assay type: functional
Streptococcus = assay: Group A Streptococcus viability loss, dose response, counter-screen for streptokinase expression inhibitor project, luminescence, BacTiterGlo (AID 1915); assay type: functional, organism-based;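 also: potency for reduction of bacterial viability or growth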
INS1 = assay: beta cell apoptosis inhibitors, cytokine rescue, dose response, luminescence, retest (AID 449756); assay type: functional, cell-based; conditions: Rattus norvegicus;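 also: cell death triggered by IL-1 beta plus TNF-alpha plus IFN-gamma mixture; protective hits raise ATP signal compared with cytokine alone wells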
[6] = Luminescence Cell-Based Dose Retest to Confirm Inhibitors of Cancer Stem Cells. [Related pubchem assays (depositor defined):AID2717, AID2721]; assay type: functional; conditions: Homo sapiens
Exodeoxyribonuclease V = target: T1, Exodeoxyribonuclease V (Escherichia coli (strain K12), UniProt P04993+P07648+P08394); assay: E. coli RecBCD inhibitors, dose response, counter-screen for AddAB inhibitor project, absorbance, V66 E. coli, mutant T4 phage (AID 492957); assay type: functional, cell-based, Escherichia coli str. K-12 substr. MG1655
T1 sequence (P04993 whole entry): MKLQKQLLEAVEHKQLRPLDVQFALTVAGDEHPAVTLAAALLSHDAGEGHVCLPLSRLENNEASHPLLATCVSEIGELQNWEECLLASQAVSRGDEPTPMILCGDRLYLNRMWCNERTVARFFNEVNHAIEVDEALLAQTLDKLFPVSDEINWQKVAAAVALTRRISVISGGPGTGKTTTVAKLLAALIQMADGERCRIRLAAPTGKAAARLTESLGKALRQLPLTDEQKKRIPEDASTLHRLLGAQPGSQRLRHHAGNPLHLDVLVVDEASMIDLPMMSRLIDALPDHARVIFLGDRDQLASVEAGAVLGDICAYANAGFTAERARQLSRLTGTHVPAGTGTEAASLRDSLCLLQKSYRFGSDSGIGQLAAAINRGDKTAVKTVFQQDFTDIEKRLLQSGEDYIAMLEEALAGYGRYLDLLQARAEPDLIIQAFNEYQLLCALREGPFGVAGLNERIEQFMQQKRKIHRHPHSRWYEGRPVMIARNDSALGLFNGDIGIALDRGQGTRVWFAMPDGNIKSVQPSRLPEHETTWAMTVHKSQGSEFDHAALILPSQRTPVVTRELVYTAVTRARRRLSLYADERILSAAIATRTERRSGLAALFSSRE
T1 sequence (P07648 whole entry): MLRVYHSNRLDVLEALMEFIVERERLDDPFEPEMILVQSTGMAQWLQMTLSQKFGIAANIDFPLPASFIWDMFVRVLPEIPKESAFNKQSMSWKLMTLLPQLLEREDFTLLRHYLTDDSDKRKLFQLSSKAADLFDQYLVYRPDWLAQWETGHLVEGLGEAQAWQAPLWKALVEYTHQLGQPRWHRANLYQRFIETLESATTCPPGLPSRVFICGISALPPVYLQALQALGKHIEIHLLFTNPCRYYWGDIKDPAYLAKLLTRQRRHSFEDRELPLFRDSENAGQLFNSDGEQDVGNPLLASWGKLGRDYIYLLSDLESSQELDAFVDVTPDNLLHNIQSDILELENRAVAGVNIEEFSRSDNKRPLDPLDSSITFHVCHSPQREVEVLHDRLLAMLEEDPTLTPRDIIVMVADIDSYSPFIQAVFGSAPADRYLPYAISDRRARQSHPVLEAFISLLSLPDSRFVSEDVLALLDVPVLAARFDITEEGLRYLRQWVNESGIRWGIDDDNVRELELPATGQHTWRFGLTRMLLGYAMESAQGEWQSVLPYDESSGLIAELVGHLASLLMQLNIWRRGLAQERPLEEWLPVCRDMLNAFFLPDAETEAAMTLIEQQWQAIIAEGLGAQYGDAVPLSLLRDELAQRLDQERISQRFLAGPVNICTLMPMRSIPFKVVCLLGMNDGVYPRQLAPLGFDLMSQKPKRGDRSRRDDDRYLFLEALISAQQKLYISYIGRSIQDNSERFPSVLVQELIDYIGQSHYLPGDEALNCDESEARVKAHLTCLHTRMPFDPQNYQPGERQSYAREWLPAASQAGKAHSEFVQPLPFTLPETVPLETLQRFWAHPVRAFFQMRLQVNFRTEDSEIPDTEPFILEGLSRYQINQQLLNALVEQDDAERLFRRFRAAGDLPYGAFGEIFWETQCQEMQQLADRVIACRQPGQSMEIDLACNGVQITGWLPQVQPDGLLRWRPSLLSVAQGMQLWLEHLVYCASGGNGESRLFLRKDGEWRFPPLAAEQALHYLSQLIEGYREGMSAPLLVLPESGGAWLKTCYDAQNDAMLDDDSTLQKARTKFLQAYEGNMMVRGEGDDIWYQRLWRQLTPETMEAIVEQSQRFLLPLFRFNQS
T1 sequence (P08394 whole entry): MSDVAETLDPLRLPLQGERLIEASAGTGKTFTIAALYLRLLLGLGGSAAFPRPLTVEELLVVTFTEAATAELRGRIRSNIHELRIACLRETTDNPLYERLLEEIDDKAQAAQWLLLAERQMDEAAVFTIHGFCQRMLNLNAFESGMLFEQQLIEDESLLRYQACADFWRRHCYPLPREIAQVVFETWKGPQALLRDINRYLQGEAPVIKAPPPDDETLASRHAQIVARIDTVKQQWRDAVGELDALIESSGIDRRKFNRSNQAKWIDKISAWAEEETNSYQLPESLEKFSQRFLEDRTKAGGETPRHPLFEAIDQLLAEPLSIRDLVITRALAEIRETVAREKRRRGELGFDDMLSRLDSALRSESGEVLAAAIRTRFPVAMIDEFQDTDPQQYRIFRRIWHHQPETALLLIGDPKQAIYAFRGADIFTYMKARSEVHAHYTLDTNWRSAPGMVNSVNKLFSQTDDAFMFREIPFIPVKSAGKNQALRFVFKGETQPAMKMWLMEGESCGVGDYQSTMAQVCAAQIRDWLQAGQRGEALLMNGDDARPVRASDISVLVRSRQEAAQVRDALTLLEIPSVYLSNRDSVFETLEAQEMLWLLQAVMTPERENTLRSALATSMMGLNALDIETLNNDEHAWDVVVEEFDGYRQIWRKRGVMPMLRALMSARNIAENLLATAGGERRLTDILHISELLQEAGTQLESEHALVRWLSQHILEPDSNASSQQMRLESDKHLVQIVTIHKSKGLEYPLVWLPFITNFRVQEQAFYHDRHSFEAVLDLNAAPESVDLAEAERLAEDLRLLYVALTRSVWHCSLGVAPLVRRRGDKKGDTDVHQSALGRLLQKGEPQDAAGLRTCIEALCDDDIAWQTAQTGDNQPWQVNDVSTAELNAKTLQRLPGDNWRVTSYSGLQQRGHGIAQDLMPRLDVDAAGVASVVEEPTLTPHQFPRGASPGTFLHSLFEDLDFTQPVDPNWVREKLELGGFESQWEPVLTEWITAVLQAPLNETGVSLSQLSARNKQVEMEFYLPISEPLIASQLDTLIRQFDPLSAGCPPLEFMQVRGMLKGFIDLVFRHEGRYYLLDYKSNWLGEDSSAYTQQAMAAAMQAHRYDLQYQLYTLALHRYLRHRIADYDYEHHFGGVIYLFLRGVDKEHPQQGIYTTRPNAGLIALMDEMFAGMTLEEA

[7] = cytotoxicity toward NIH3T3 fibroblasts, dose response, counter-screen, cell-based, ATP luminescence, mouse fibroblasts (AID 2010); assay type: functional;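 also: cells exposed to compound for about 90 hours before reading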
cells [8] = assay type: functional, cell-based; remark: listed apart in the source
HEK293 [9] = assay: cells; assay type: functional, cell-based; conditions: Homo sapiens
[10] = target: Nucleotide-binding oligomerization domain-containing protein 2 (Homo sapiens, UniProt Q9HC29); assay: NOD2 signaling inhibitors, cell-based, luminescence, uHTS, HEK293 (AID 1566); assay type: functional
HEK293 [11] = assay: cells; assay type: functional, cell-based; conditions: Homo sapiens; remark: listed apart in the source
HEK293 [12] = assay: NOD2 signaling inhibitors in MDP-stimulated cells, cell-based, uHTS, luminescence (AID 2001); assay type: functional; conditions: Homo sapiens
[13] = target: T2, Short transient receptor potential channel 4 (Mus musculus, UniProt Q9QUQ5); assay: mouse TRPC4 channel inhibitors, dose response, cell-based, HEK293 TRPC4/mu-opioid, Fluo-4 calcium (AID 434942); assay type: functional;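 also: potency of inhibitors blocking the TRPC4 calcium response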
T2 sequence (Q9QUQ5 whole entry): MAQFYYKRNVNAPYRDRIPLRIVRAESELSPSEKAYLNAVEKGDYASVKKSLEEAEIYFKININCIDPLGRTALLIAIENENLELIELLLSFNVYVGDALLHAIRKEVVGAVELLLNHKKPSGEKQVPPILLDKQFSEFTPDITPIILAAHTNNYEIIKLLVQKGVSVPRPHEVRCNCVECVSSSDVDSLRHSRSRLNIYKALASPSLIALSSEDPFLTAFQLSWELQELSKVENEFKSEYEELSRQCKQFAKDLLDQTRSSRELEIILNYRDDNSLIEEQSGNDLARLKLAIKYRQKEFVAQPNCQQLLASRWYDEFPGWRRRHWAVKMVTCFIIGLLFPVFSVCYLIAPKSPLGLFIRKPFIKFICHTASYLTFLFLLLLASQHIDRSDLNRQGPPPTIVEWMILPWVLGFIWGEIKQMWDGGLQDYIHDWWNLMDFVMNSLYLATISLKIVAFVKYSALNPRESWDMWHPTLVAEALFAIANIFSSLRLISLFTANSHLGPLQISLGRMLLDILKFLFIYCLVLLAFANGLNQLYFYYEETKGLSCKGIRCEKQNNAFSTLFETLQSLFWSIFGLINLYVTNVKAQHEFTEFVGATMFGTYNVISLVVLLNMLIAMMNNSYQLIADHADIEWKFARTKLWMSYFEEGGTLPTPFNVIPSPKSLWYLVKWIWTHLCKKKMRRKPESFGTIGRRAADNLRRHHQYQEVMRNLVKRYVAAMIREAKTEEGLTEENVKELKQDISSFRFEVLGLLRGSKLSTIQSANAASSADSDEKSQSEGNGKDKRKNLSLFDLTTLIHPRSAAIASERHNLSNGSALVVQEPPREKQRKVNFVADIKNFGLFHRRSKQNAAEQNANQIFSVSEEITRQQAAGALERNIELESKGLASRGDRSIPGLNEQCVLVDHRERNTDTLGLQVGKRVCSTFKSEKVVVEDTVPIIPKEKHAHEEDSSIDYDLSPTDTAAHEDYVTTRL

HEK293 [14] = assay: cells; assay type: functional, cell-based; conditions: Homo sapiens; remark: listed apart in the source
HEK293 [15] = assay: NOD1 signaling inhibitors, primary screen, cell-based, luminescence, uHTS (AID 1578); assay type: functional; conditions: Homo sapiens
[16] = target: T3, Carboxy-terminal domain RNA polymerase II polypeptide A small phosphatase 1 (Homo sapiens, UniProt Q9GZU7); assay: inhibitors of CTDSP1, concentration-response testing, biochemical assay, absorbance-based, actives from ultra-high-throughput screening (AID 540297); assay type: functional
T3 sequence (Q9GZU7 whole entry): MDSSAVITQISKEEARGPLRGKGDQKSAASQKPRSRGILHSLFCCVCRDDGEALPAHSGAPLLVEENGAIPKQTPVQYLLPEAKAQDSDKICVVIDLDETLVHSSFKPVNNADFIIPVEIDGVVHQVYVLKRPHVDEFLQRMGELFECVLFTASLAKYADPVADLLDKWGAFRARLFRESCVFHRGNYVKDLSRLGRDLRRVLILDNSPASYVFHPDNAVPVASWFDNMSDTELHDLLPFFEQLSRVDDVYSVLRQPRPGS

Sequence of Nucleotide-binding oligomerization domain-containing protein 2 (Q9HC29 whole entry, the tested form may be a part): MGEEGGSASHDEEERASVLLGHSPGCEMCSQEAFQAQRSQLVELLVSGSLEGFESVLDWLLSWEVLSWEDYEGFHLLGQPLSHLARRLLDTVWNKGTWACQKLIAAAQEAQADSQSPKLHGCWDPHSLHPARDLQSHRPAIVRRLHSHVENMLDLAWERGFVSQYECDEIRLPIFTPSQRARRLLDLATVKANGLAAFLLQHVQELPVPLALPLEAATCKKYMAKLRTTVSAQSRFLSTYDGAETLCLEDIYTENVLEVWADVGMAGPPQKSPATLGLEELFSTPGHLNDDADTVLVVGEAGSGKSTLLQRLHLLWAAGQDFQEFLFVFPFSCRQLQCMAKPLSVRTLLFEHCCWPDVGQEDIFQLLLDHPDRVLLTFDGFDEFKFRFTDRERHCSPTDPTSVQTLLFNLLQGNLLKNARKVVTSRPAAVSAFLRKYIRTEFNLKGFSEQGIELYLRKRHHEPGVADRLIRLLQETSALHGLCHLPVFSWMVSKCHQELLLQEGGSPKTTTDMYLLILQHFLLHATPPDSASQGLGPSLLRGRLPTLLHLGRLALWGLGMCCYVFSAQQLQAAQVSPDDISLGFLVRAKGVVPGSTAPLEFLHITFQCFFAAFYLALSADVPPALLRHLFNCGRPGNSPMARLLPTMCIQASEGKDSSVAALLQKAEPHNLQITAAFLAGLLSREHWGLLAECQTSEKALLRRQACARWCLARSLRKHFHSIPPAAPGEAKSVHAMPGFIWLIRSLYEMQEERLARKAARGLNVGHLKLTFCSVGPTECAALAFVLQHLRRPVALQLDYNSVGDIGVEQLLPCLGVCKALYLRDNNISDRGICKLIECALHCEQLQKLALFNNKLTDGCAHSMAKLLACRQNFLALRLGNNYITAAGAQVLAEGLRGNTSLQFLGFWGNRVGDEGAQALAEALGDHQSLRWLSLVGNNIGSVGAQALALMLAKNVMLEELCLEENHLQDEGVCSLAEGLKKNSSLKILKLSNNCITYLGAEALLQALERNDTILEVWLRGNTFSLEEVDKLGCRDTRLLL

Compound | IC50 [5] | IC50 (Exodeoxyribonuclease V) | IC50 (HEK293 [9]) | EC50 [10] | IC50 (HEK293 [11]) | IC50 (HEK293 [12]) | IC50 (HEK293 [14]) | EC50 (HEK293 [15]) | further results
CCCC(=O)NC(c1ccc2c(c1)OCO2)c1cc(Cl)c2cccnc2c1O (centres undefined) | > 119 µM (inactive) | > 119 µM (inactive) | – | – | – | – | – | – | EC50 (cells [1]): 47.7 µM (active); AC50 [2]: 3.41 µM (active); EC50 [3]: 4.09 µM (active); EC50 [4]: 0.912 µM (active); EC50 (Streptococcus): 7.69 µM (active); AC50 (INS1): 1.03 µM (active); AC50 [6]: 3.06 µM (active); EC50 [7]: 2.21 µM (active); EC50 (cells [8]): > 350 µM (not active)
Cc1nc(N2CCN(c3ccccn3)CC2)c2c(C)c(C(=O)N3CCN(c4ccccc4F)CC3)sc2n1 | – | – | 6.62 µM (active) | 5.07 µM (active) | > 20 µM (inactive) | 7.16 µM (inactive) | 11 µM (active) | 6.4 µM (active) | EC50 [13]: 1.68 µM (active)
CCS(=O)(=O)C1=NN2C(=N)/C(=C\c3ccc(OCCOc4cccc(OC)c4)c(OC)c3)C(=O)N=C2S1 | – | – | > 20 µM (inactive) | 3.32 µM (active) | > 20 µM (inactive) | > 20 µM (inactive) | > 20 µM (inactive) | > 20 µM (inactive) | IC50 [16]: 4.26 µM (active)
CSc1nc(N)nc2c1ncn2CC(=O)Nc1ccc(C)c(C)c1 | > 118 µM (inactive) | > 118 µM (inactive) | – | – | – | – | – | – | –
Cc1c(Cl)cccc1N=C(S)NCc1ccccc1Cl | > 119 µM (inactive) | > 119 µM (inactive) | – | – | – | – | – | – | –
